In brackets after ≈: the same amount, converted by molar mass. Each block holds one compound with its values, some of them ahead of it.
Columns and labels:
Assay in all cases: ≥ marks a high value that may be exact or a test limit, other limits are often not marked, values filed in µg/mL are converted to µM
[1] = test system: Clavibacter michiganensis subsp. michiganensis DSM 46294
[2] = test system: Pectobacterium carotovorum subsp. carotovorum DSM 30168
[3] = test system: Pseudomonas corrugata DSM 7228
[4] = test system: Pseudomonas syringae pv. syringae DSM 10604
[5] = test system: Pseudomonas syringae pv. tomato DC3000
[6] = test system: Xanthomonas vesicatoria DSM 50861
[7] = test system: Bacillus subtilis
[8] = test system: Escherichia coli HB101
[9] = test system: Pseudomonas aeruginosa
[10] = test system: Salmonella typhimurium
[11] = test system: Staphylococcus aureus
[12] = test system: Bacillus subtilis 168
[13] = test system: Candida albicans F7-39/IDE99
[14] = test system: Escherichia coli B
[15] = test system: Micrococcus luteus CCM 144
[16] = test system: Pseudomonas aeruginosa ATCC 27853
[17] = test system: Staphylococcus aureus ATCC 43300
[18] = test system: Staphylococcus epidermidis
[19] = test system: Escherichia coli ATCC 25922
[20] = test system: Escherichia coli BW25113
[21] = test system: Enterococcus faecalis ATCC 29212
[22] = test system: Salmonella enterica subsp. enterica serovar Pullorum C79-13
[23] = test system: Salmonella enterica subsp. enterica serovar Typhimurium C77-31
[24] = test system: Staphylococcus aureus ATCC 29213
[25] = test system: Staphylococcus epidermidis ATCC 12228
[26] = test system: Escherichia coli UB1005
[27] = test system: Salmonella enterica subsp. enterica serovar Typhimurium ATCC 14028

MIC [1]: 3.16 µM (≈ 5 µg/mL)
MIC [2]: 6.33 µM (≈ 9.99 µg/mL)
MIC [3]: 0.158 µM (≈ 0.25 µg/mL)
MIC [4]: 0.0633 µM (≈ 0.1 µg/mL)
MIC [5]: 0.633 µM (≈ 0.999 µg/mL)
MIC [6]: 3.16 µM (≈ 5 µg/mL)
SMILES: CC(C)C[C@H](NC(=O)[C@H](CC(C)C)NC(=O)[C@H](CCCN=C(N)N)NC(=O)[C@H](CCCCN)NC(=O)[C@H](CC(C)C)NC(=O)[C@H](CC(C)C)NC(=O)[C@H](CCCCN)NC(=O)[C@H](CCCCN)NC(=O)[C@H](CCCN=C(N)N)NC(=O)[C@H](CCCCN)NC(=O)[C@H](CCCCN)NC(=O)[C@@H](N)CCCN=C(N)N)C(N)=O [RKKRKKLLKRLL]

MIC [7]: 5.2 µM (≈ 11.8 µg/mL)
MIC [8]: 2.6 µM (≈ 5.92 µg/mL)
MIC [9]: 10.4 µM (≈ 23.7 µg/mL)
MIC [10]: 1.3 µM (≈ 2.96 µg/mL)
MIC [11]: 10.4 µM (≈ 23.7 µg/mL)
SMILES: CC[C@H](C)[C@H](NC(=O)[C@@H](NC(=O)[C@@H]1CCCN1C(=O)[C@@H](NC(=O)[C@@H]1CCCN1C(=O)[C@H](CCCCN)NC(=O)[C@H](CCCCN)NC(=O)[C@H](CO)NC(=O)CN)C(C)C)[C@@H](C)CC)C(=O)N[C@@H](Cc1ccc(O)cc1)C(=O)N[C@H]1CSSC[C@@H](C(=O)N[C@@H](CCC(N)=O)C(=O)N[C@@H](CCCN=C(N)N)C(=O)N[C@@H](CCSC)C(=O)O)NC(=O)[C@H](CCCCN)NC(=O)[C@H](CCCN=C(N)N)NC(=O)[C@H](CCCN=C(N)N)NC(=O)[C@H](CC(N)=O)NC1=O [GSKKPVPIIYCNRRKCQRM]

MIC [12]: 7 µM (≈ 11.7 µg/mL)
MIC [13]: 8.4 µM (≈ 14.1 µg/mL)
MIC [14]: 3.6 µM (≈ 6.03 µg/mL)
MIC [15]: 3 µM (≈ 5.02 µg/mL)
MIC [16]: 8 µM (≈ 13.4 µg/mL)
MIC [9]: 17 µM (≈ 28.5 µg/mL)
MIC [17]: 7.2 µM (≈ 12.1 µg/mL)
MIC [11]: 10 µM (≈ 16.7 µg/mL)
MIC [18]: 5 µM (≈ 8.37 µg/mL)
SMILES: CC[C@H](C)[C@H](NC(=O)CN)C(=O)N[C@@H](CCSC)C(=O)N[C@@H](CO)C(=O)N[C@@H](CO)C(=O)N[C@@H](CC(C)C)C(=O)N[C@@H](CCSC)C(=O)N[C@@H](CCCCN)C(=O)N[C@@H](CCCCN)C(=O)N[C@@H](CC(C)C)C(=O)N[C@@H](C)C(=O)N[C@@H](C)C(=O)N[C@H](C(=O)N[C@H](C(=O)N[C@@H](C)C(=O)N[C@@H](CCCCN)C(N)=O)[C@@H](C)CC)[C@@H](C)CC [GIMSSLMKKLAAIIAK]

MIC [19]: > 128 µM
MIC [8]: ≥ 128 µM
SMILES: CC[C@H](C)[C@H](NC(=O)[C@H](CCCN=C(N)N)NC(=O)[C@@H](N)CCCN=C(N)N)C(=O)N[C@@H](CCCN=C(N)N)C(=O)N1CCC[C@H]1C(=O)N[C@@H](CCCN=C(N)N)C(=O)N1CCC[C@H]1C(=O)N[C@@H](CCCN=C(N)N)C(=O)N[C@@H](CS)C(=O)O [RRIRPRPRC]

MIC [20]: 8 µM (≈ 17.9 µg/mL)
SMILES: CC[C@H](C)[C@H](NC(=O)[C@@H]1CCCN1C(=O)[C@@H]1CCCN1C(=O)[C@H](CCCN=C(N)N)NC(=O)[C@H](CCCN=C(N)N)NC(=O)[C@H](Cc1c[nH]c2ccccc12)NC(=O)[C@@H]1CCCN1C(=O)[C@@H]1CCCN1C(=O)[C@H](CCCN=C(N)N)NC(=O)[C@H](Cc1ccccc1)NC(=O)[C@@H](N)CCCN=C(N)N)C(=O)N[C@@H](CCCN=C(N)N)C(=O)N1CCC[C@H]1C(=O)N1CCC[C@H]1C(=O)N[C@@H](Cc1ccccc1)C(=O)N[C@@H](Cc1ccc(O)cc1)C(=O)N1CCC[C@H]1C(=O)O [RFRPPWRRPPIRPPFYP]

MIC [21]: > 128 µM
MIC [19]: > 128 µM
MIC [22]: ≥ 128 µM
MIC [23]: ≥ 128 µM
MIC [24]: > 128 µM
MIC [25]: > 128 µM
SMILES: CC(C)C[C@H](NC(=O)[C@@H](NC(=O)[C@@H](NC(=O)[C@@H](N)CC(C)C)C(C)C)[C@@H](C)O)C(=O)N[C@H](C(=O)N[C@@H](Cc1ccccc1)C(=O)N[C@H](C(=O)NCC(=O)NCC(=O)NCC(=O)N[C@@H](Cc1c[nH]c2ccccc12)C(=O)N[C@@H](CCCCN)C(=O)N[C@@H](Cc1c[nH]c2ccccc12)C(=O)N[C@@H](CCCCN)C(=O)N[C@@H](Cc1c[nH]c2ccccc12)C(=O)N[C@@H](CCC(=O)O)C(=O)N[C@@H](CC(N)=O)C(=O)NCC(=O)N[C@@H](CCCCN)C(=O)N[C@@H](Cc1c[nH]c2ccccc12)C(=O)N[C@@H](CCCCN)C(=O)N[C@@H](Cc1c[nH]c2ccccc12)C(=O)N[C@@H](CCC(N)=O)C(=O)N[C@@H](Cc1c[nH]c2ccccc12)C(=O)O)C(C)C)C(C)C [LVTLVFVGGGWKWKWENGKWKWQW]

MIC [1]: 0.989 µM (≈ 2.5 µg/mL)
MIC [2]: 3.96 µM (≈ 10 µg/mL)
MIC [3]: 3.96 µM (≈ 10 µg/mL)
MIC [4]: 3.96 µM (≈ 10 µg/mL)
MIC [5]: 0.989 µM (≈ 2.5 µg/mL)
MIC [6]: 0.396 µM (≈ 1 µg/mL)
SMILES: CC[C@H](C)[C@H](NC(=O)[C@H](CC(C)C)NC(=O)[C@H](CCCCN)NC(=O)[C@@H](NC(=O)[C@@H](NC(=O)[C@H](CC(C)C)NC(=O)[C@H](CCCCN)NC(=O)[C@H](CC(C)C)NC(=O)[C@@H](NC(=O)[C@H](CCCN=C(N)N)NC(=O)[C@@H](NC(=O)[C@H](CC(C)C)NC(=O)[C@@H](NC(=O)[C@H](CCCN=C(N)N)NC(=O)[C@H](CCCN=C(N)N)NC(=O)[C@@H](N)CCCCN)[C@@H](C)CC)[C@@H](C)CC)[C@@H](C)CC)[C@@H](C)CC)[C@@H](C)CC)C(=O)N[C@@H](CC(C)C)C(=O)N[C@@H](CCCCN)C(=O)N[C@@H](CCCCN)C(=O)N[C@@H](CCCN=C(N)N)C(N)=O [KRRILIRILKLIIKLILKKR]

MIC [12]: ≥ 65 µM
MIC [13]: ≥ 100 µM
MIC [14]: ≥ 100 µM
MIC [15]: ≥ 100 µM
MIC [9]: > 100 µM
MIC [11]: > 100 µM
SMILES: CC[C@H](C)[C@H](NC(=O)[C@H](C)NC(=O)CNC(=O)[C@H](CCCCN)NC(=O)[C@H](CC(N)=O)NC(=O)[C@@H](N)CC(C)C)C(=O)N[C@@H](CC(C)C)C(=O)N[C@@H](CCCCN)C(=O)N[C@@H](Cc1cnc[nH]1)C(=O)N[C@H](C(=O)N[C@H](C(=O)N[C@@H](CCCCN)C(N)=O)[C@@H](C)CC)[C@@H](C)CC [LNKGAILKHIIK]

MIC [1]: 0.635 µM (≈ 0.999 µg/mL)
MIC [2]: 1.59 µM (≈ 2.5 µg/mL)
MIC [3]: 0.318 µM (≈ 0.5 µg/mL)
MIC [4]: 0.159 µM (≈ 0.25 µg/mL)
MIC [5]: 0.159 µM (≈ 0.25 µg/mL)
MIC [6]: 0.635 µM (≈ 0.999 µg/mL)
SMILES: CC(C)C[C@H](NC(=O)[C@H](C)NC(=O)[C@H](CCCN=C(N)N)NC(=O)[C@H](CCCN=C(N)N)NC(=O)[C@H](C)NC(=O)[C@H](Cc1ccccc1)NC(=O)[C@H](CCCN=C(N)N)NC(=O)[C@@H](N)CC(C)C)C(=O)N[C@@H](CCCN=C(N)N)C(=O)N[C@@H](CCCN=C(N)N)C(=O)N[C@@H](CC(C)C)C(=O)N[C@@H](Cc1ccccc1)C(N)=O [LRFARRALRRLF]

MIC [12]: 3.4 µM (≈ 6.49 µg/mL)
MIC [13]: 12.1 µM (≈ 23.1 µg/mL)
MIC [14]: 1.8 µM (≈ 3.44 µg/mL)
MIC [15]: 1.2 µM (≈ 2.29 µg/mL)
MIC [9]: 47.5 µM (≈ 90.7 µg/mL)
MIC [11]: 3.5 µM (≈ 6.68 µg/mL)
SMILES: CC[C@H](C)[C@H](NC(=O)[C@H](CC(C)C)NC(=O)[C@H](CCCCN)NC(=O)[C@@H](NC(=O)[C@@H](NC(=O)[C@H](CCCCN)NC(=O)[C@@H]1CCCN1C(=O)[C@H](CC(C)C)NC(=O)[C@@H](NC(=O)[C@H](CCCCN)NC(=O)[C@H](C)NC(=O)[C@H](CC(C)C)NC(=O)[C@H](CC(C)C)NC(=O)[C@H](CO)NC(=O)[C@H](C)NC(=O)[C@H](CCSC)NC(=O)CN)C(C)C)C(C)C)C(C)C)C(=O)N[C@@H](CCCCN)C(=O)O [GMASLLAKVLPKVVKLIK]

MIC [21]: 4 µM (≈ 12.4 µg/mL)
MIC [26]: 2 µM (≈ 6.21 µg/mL)
MIC [16]: 4 µM (≈ 12.4 µg/mL)
MIC [22]: 8 µM (≈ 24.8 µg/mL)
MIC [27]: 4 µM (≈ 12.4 µg/mL)
MIC [23]: 4 µM (≈ 12.4 µg/mL)
MIC [25]: 4 µM (≈ 12.4 µg/mL)
SMILES: CC[C@H](C)[C@H](NC(=O)[C@H](CCCCN)NC(=O)[C@H](CCCCN)NC(=O)[C@H](Cc1ccccc1)NC(=O)[C@H](CC(C)C)NC(=O)[C@H](CCCCN)NC(=O)[C@H](Cc1c[nH]c2ccccc12)NC(=O)[C@@H](N)CCCCN)C(=O)N[C@@H](CCCN=C(N)N)C(=O)N[C@@H](Cc1ccccc1)C(=O)NCC(=O)N[C@@H](CCCN=C(N)N)C(=O)N[C@@H](Cc1ccccc1)C(=O)N[C@@H](CC(C)C)C(=O)N[C@@H](CCCN=C(N)N)C(=O)N[C@@H](CCCCN)C(=O)N[C@H](C(=O)N[C@@H](CCCN=C(N)N)C(=O)N[C@@H](CCCN=C(N)N)C(=O)N[C@@H](Cc1ccccc1)C(=O)N[C@@H](CCCN=C(N)N)C(=O)N1CCC[C@H]1C(=O)N[C@@H](CCCCN)C(N)=O)[C@@H](C)CC [KWKLFKKIRFGRFLRKIRRFRPK]

From DBAASP
